The results in this text go back to ChEMBL document CHEMBL5236551, “Andrographolide and its derivatives: Current achievements and future perspectives” (Eur J Med Chem, 2021).

Structures are written as SMILES. pIC50: −log10 of the molar value. ≈ marks a conversion by molar mass, not a printed value. A value given as a limit tells only on which side of the number the result lay.

Assay [1] has as its system Pseudomonas aeruginosa. The experiment in a line: Antibiofilm activity against Pseudomonas aeruginosa MTCC 7814 assessed as inhibition of biofilm formation at 0.1 mM in presence of azithromycin or gentamicin incubated for 48 hrs relative to control. Type of assay: functional. The following applies: MTCC 7814, 48 h.
Assay [2] deals with Rattus norvegicus. The experiment in a line: Anti-inflammatory activity against egg albumin-induced paw edema in Sprague-Dawley rat assessed as inhibition of paw edema at 0.90 mmol/Kg, po preadministered once daily via gavage for 3 days followed by egg albumin addition measured at 120 min by plethysmometric analysis relative to control. The following applies: 72 h, at 0.9 mmol/kg, time 3 day. Type of assay: functional.

For assay [3], the system named is Mus musculus. In words: Anti-inflammatory activity against dimethylbenzene-induced auricular edema Kunming mouse model assessed as inhibition of ear edema at 1.35 mmol/Kg, po administered once daily via gavage for 3 days relative to control. In kind it is functional. As to conditions: 72 h, time 3 day.
The nature of assay [4]: Inhibition of TGF-beta1 induced mesenchymal transformation in human A549 cells assessed as inhibition rate at 1.25 uM relative to control. Type of assay: functional.
Assay [5] is described as follows: Antimigratory activity against human LX2 cells assessed as inhibition rate at 5 uM relative to control. In kind it is functional. As to conditions: LX-2.
The nature of assay [6]: Antimigratory activity against Ang II-induced human Cardiac fibroblast cells assessed as inhibition rate at 0.16 uM relative to control. In kind it is functional.
In assay [7] the test system is MCF7. The experiment in a line: Antiproliferative activity against human MCF7 cells assessed as cell growth inhibition incubated for 72 hrs by CCK8 assay. Type of assay: functional, cell-based. The following applies: MCF7, 72 h.
The subject of assay [8] is HCT-116. The experiment in a line: Antiproliferative activity against human HCT-116 cells assessed as cell growth inhibition incubated for 72 hrs by CCK8 assay. Type of assay: functional, cell-based. The following applies: HCT-116, 72 h.
Assay [9] has as its system Human immunodeficiency virus 1. In words: Antiviral activity against HIV-1 infected in human C8166 cells. Type of assay: functional, organism-based. As to conditions: Human immunodeficiency virus 1, C8166.
For assay [10], the system named is Rattus norvegicus. The experiment in a line: Anti-inflammatory activity against egg white-induced paw edema in rat model assessed as detumescence rate measured after 6 hrs relative to control. In kind it is functional.
Assay [11] relates to Pseudomonas aeruginosa. The experiment in a line: Antibacterial activity against Pseudomonas aeruginosa assessed as bacterial growth inhibition by agar dilution method. Type of assay: functional.
Assay [12] concerns Klebsiella aerogenes. The experiment in a line: Antibacterial activity against Klebsiella aerogenes assessed as bacterial growth inhibition by agar dilution method. Type of assay: functional.
Assay [13] deals with SW-620. In words: Cytotoxicity against human SW620 cells assessed as cell growth inhibition after 48 hrs by SRB assay. Type of assay: functional, cell-based. As to conditions: SW-620, 48 h.
The subject of assay [14] is MCF7. The experiment in a line: Cytotoxicity against human MCF7 cells assessed as cell growth inhibition after 48 hrs by SRB assay. Type of assay: functional, cell-based. The following applies: MCF7, 48 h.
In assay [15] the test system is OVCAR-8. The experiment in a line: Cytotoxicity against human OVCAR-8 cells assessed as cell growth inhibition after 48 hrs by SRB assay. As to conditions: OVCAR-8, 48 h. In kind it is functional, cell-based.
For assay [16], the system named is DU-145. In words: Cytotoxicity against human DU-145 cells assessed as cell growth inhibition after 48 hrs by SRB assay. As to conditions: DU-145, 48 h. In kind it is functional, cell-based.
Assay [17] relates to NCI/ADR-RES. The experiment in a line: Cytotoxicity against human MCF7/ADR cells assessed as cell growth inhibition after 48 hrs by SRB assay. Type of assay: functional, cell-based.
Assay [18] has as its system PC-3. The experiment in a line: Cytotoxicity against human PC-3 cells assessed as cell growth inhibition after 48 hrs by SRB assay. Type of assay: functional, cell-based. The following applies: PC-3, 48 h.
In assay [19] the test system is UACC-62. The experiment in a line: Cytotoxicity against human UACC-62 cells assessed as cell growth inhibition after 48 hrs by SRB assay. Type of assay: functional, cell-based. As to conditions: UACC-62, 48 h.
For assay [20], the system named is NCI-H522. In words: Cytotoxicity against human NCI-H522 cells assessed as cell growth inhibition after 48 hrs by SRB assay. Type of assay: functional, cell-based. The following applies: NCI-H522, 48 h.
The subject of assay [21] is HT-29. The experiment in a line: Cytotoxicity against human HT-29 cells assessed as cell growth inhibition after 48 hrs by SRB assay. Type of assay: functional, cell-based. As to conditions: HT-29, 48 h.
Assay [22] deals with HCT-116. The experiment in a line: Antiproliferative activity against human HCT-116 cells assessed as cell growth inhibition measured after 48 hrs by MTT assay. In kind it is functional, cell-based. As to conditions: HCT-116, 48 h.
Assay [23] is filed under the species Rattus norvegicus. In words: Antiplatelet activity against arachidonic acid-induced Sprague-Dawley rat platelet aggregation assessed as inhibition of platelet aggregation preincubated for 2 mins followed by arachidonic acid addition by turbidimetric method. As to conditions: Arterial blood. Type of assay: functional.
Assay [24] is filed under the species Rattus norvegicus. In words: Antiplatelet activity against thrombin-induced Sprague-Dawley rat platelet aggregation assessed as inhibition of platelet aggregation preincubated for 2 mins followed by thrombin addition by turbidimetric method. In kind it is functional. As to conditions: Arterial blood.
The species named for assay [25] is Rattus norvegicus. In words: Antiplatelet activity against collagen-induced Sprague-Dawley rat platelet aggregation assessed as inhibition of platelet aggregation preincubated for 2 mins followed by collagen addition by turbidimetric method. Type of assay: functional. As to conditions: Arterial blood.

As for `C=C1CCC2[C@](C)(CO)[C@H](O)CC[C@@]2(C)[C@@H]1/C=C/C1=CCOC1=O` (stereo partly drawn), the inhibition at 100 µM in assay [1] was 92%.
On to `C=C1CC[C@@H]2[C@](C)(COC(=O)c3cccnc3)[C@H](OC(=O)c3cccnc3)CC[C@@]2(C)[C@@H]1/C=C/C1=CC(=C/c2ccc(Cl)cc2)/OC1=O`, for which, in [2], the inhibition in vivo at 900 µmol/kg is 50.4%. For the same compound, the inhibition in vivo at 1350 µmol/kg in assay [3] was 79.4%.
Take `C=C1CCC2[C@](C)(C=O)c3nc(N)sc3C[C@@]2(C)[C@@H]1/C=C/C1=CCOC1=O` (stereo partly drawn): the inhibition at 1.25 µM in assay [4] was > 65%. In assay [5], the inhibition at 5 µM is > 20%.
For `C=C1CCC2[C@](C)(CO)NC(=O)CC[C@@]2(C)[C@@H]1/C=C/C1=CCOC1=O` (stereo partly drawn), in [4], the inhibition at 1.25 µM is > 60%. Moreover, the inhibition at 5 µM in assay [5] was > 40%. Further, the inhibition at 0.16 µM in assay [6] is > 95%.
`C=C1CC[C@H]2[C@@](C)(C=CC(=O)[C@@]2(C)COC(=O)c2ccccc2)[C@@H]1C/C=C1/C(=O)OC[C@H]1O`: the pIC50 was 5.11 in assay [7] and 5.60 in [8].
On to `C=C1CCC2[C@](C)(CO)[C@H](O)CC[C@@]2(C)[C@@H]1CCC1C(=O)N(C)C[C@H]1O` (stereo partly drawn), for which the pIC50 in [9] was 5.39.
For the compound `C[C@@]12CCC3[C@](C)(COC(=O)CCC(=O)O)[C@H](OC(=O)CCC(=O)O)CC[C@@]3(C)[C@@H]1CC(C1=CCOC1=O)O2` (stereo partly drawn), the “inhibition (INH)” value in [10] is reported as 93.18%.
As for `C=C1CCC2[C@](C)(CO)[C@H](O)CC[C@@]2(C)[C@@H]1C/C=C(/C(=O)OCC)[C@H](O)CO` (stereo partly drawn), the minimal inhibitory concentration (MIC) in [11] and in [12] was 18.9 µg/mL (≈ 47.7 µM) throughout.
Regarding `C=C1CCC2[C@](C)(CO)[C@H](O)CC[C@@]2(C)[C@@H]1C/C=C/c1ccc(F)cc1` (stereo partly drawn), the pIC50 in assay [13] was 4.70; in assay [14], 4.85; in [15], 5.70; in assay [16], 5.15; in [17], 5.40; in [18], 4.85. The pIC50 in assay [19] was 4.77; in [20], 5.52; in assay [21], 4.80.
For the compound `C=C1CC[C@@H]2[C@](C)(COC(C)=O)[C@H](OC(C)=O)CC[C@@]2(C)[C@@H]1CC(Nc1ccccc1SC)C1=CCOC1=O` (stereo partly drawn), in assay [22], the pIC50 is 5.24.
As to `C=C1CCC2[C@](C)(COC(=O)CCC(=O)O)[C@H](OC(=O)CCC(=O)O)CC[C@@]2(C)[C@@H]1/C=C/c1cc(=O)oc2cc(OC(C)=O)ccc12` (stereo partly drawn), the pIC50 is 6.32 in [23], 6.44 in [24] and 6.30 in assay [25].
Take `C=C1CCC2[C@](C)(COC(=O)Cc3cccc4ccccc34)[C@H](OC(=O)c3cccnc3)CC[C@@]2(C)[C@@H]1/C=C/C1=CCOC1=O` (stereo partly drawn): the pIC50 in assay [9] is 5.01.
